Results on seven compounds are retold here after ChEMBL document CHEMBL1250452, “Bradykinin B1 receptor antagonists as potential therapeutic agents for pain” (J Med Chem, 2010).

For series [1], the target named is T1, B1 bradykinin receptor (Macaca mulatta, UniProt Q8HZP2).
T1 sequence (Q8HZP2 whole entry): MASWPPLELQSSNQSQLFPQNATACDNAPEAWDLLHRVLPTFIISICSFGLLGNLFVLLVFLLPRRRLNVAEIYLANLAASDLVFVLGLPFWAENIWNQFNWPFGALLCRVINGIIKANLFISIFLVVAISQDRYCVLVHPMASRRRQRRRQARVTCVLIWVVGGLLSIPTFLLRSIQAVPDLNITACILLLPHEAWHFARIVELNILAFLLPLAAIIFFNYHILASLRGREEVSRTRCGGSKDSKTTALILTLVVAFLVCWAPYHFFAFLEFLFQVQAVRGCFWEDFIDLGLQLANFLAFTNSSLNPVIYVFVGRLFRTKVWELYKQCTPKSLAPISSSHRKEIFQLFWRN
Put plainly: Binding affinity to monkey bradykinin B1 receptor.

Series [2] is described as follows: Half life in Sprague-Dawley rat at 0.7 mg/kg, iv. Type of series: ADME, organism-based. On the set-up: dose 0.7 mg/kg, route intravenous. The note with it: in vivo.
Series [3] in a line: Oral bioavailability in Sprague-Dawley rat at 7 mg/kg. The format is ADME, organism-based. To be noted: in vivo.
A short description of series [4]: Half life in Sprague-Dawley rat at 2 mg/kg, iv. Type of series: ADME, organism-based. Also on record: dose 2 mg/kg, route intravenous. The note with it: in vivo.
Series [5] deals with T2, B1 bradykinin receptor (Oryctolagus cuniculus, UniProt P48748).
T2 sequence (P48748 whole entry): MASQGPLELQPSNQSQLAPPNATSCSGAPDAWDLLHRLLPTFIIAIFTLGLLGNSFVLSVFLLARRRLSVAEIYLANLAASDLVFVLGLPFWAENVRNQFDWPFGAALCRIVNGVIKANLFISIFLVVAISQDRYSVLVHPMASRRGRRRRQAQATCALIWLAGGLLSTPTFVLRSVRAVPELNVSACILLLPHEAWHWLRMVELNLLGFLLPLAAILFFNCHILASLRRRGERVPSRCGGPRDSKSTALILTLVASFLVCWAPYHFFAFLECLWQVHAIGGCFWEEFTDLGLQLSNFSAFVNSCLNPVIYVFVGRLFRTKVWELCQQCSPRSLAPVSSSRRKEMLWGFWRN
Kind of series: Inhibition of rabbit bradykinin B1 receptor.

For series [6], the target named is T3, B1 bradykinin receptor (Rattus norvegicus, UniProt P97583).
T3 sequence (P97583 whole entry): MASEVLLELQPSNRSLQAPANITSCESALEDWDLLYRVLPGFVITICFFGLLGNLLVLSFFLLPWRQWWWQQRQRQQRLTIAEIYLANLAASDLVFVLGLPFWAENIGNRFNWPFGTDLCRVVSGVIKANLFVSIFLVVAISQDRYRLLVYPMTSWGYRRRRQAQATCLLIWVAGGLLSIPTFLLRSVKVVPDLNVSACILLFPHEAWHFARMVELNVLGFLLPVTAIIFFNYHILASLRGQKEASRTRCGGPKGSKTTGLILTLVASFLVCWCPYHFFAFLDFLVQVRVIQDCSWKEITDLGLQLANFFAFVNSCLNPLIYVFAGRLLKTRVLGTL
Kind of series: Inhibition of rat bradykinin B1 receptor.

Series [7] addresses T4, B1 bradykinin receptor (Canis lupus familiaris, UniProt Q9BDQ5).
T4 sequence (Q9BDQ5 whole entry): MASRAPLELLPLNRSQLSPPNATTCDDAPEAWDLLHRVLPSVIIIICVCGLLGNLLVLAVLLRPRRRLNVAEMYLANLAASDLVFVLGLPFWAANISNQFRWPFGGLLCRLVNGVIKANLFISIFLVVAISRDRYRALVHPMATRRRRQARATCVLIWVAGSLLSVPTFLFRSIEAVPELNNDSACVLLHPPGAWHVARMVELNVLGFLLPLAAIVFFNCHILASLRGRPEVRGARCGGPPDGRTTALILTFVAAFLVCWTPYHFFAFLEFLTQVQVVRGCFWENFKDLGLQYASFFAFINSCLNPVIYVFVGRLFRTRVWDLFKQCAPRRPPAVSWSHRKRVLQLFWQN
Kind of series: Antagonist activity at dog bradykinin B1 receptor. The format is functional.

The target of series [8] is T5, B1 bradykinin receptor (Homo sapiens, UniProt P46663).
T5 sequence (P46663 whole entry): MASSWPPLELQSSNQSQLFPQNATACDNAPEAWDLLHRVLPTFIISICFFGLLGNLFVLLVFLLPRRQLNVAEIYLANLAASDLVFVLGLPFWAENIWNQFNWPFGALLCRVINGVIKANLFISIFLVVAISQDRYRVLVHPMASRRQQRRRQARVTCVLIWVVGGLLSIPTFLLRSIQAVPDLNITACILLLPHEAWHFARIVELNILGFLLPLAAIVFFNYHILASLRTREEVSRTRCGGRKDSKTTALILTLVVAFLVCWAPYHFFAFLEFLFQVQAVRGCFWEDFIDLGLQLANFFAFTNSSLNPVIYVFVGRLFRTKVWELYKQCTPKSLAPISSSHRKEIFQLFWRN
Kind of series: Antagonist activity at human bradykinin B1 receptor in human MR5 cells assessed as [3H]inositol phosphate accumulation. The format is functional, cell-based.

The next series relates to Rattus norvegicus. Put plainly: Antiinflammatory activity in rat assessed as reversal of carrageenan-induced hyperalgesia at 3 mg/kg, ip. Type of series: functional. The note with it: route intraperitoneal.

What is called Ki is the equilibrium dissociation constant of an inhibitor or competing ligand from its target. As usually defined, the half-life is how long it takes for the measured level to halve. For orientation: bioavailability means the share of a dose that reaches the circulation, judged against a reference dose that is usually intravenous. In general, IC50 refers to the concentration that gives 50% inhibition.

In turn, `CN1CCN(C(=O)C2CCN(S(=O)(=O)c3ccc(NCC(c4ccccc4)c4ccccc4)c(C(=O)N4CCOCC4)c3)CC2)CC1` came in with an inhibitory constant (Ki) on B1 bradykinin receptor [1] of 7.7 nM. In addition, in series [2], the half-life is 2.7 h. Moreover, the bioavailability in series [3] amounted to 42%.

In turn, `CC(=O)Nc1ccc(S(=O)(=O)Nc2ccccc2C(=O)c2ccccc2)cc1` gave a half-life in [4] of 0.3 h.

On to `O=C(C[C@@H]1C(=O)Nc2ccccc2N1S(=O)(=O)c1ccc(Cl)c(Cl)c1)NCCc1ccc(C2=NCCN2)cc1`, for which the figures for the IC50 against B1 bradykinin receptor [5], on B1 bradykinin receptor [6] and at B1 bradykinin receptor [7] were 0.26 nM, 163 nM and 16.3 nM, respectively.

Compound `O=C(Nc1ccc(S(=O)(=O)Nc2ccccc2C(=O)c2ccccc2)cc1)OCC1CCCO1` (configuration not stated) had a half-life in [4] of 9.7 h.

Turning to `O=C(Nc1[nH]nc(C(=O)NCCC2CCN(c3ccncc3)CC2)c1Br)c1ccccc1Cl`, the IC50 on B1 bradykinin receptor [8] was 3.5 nM.

Regarding `O=C(NCCCN1CCCCC1)Nc1ccc(S(=O)(=O)Nc2ccccc2C(=O)c2ccccc2)cc1`, in series [4], the half-life was 14 h.

Regarding `CCCN1C(=O)[C@H](NC(=O)Nc2ccc(N3CCN(c4ccncc4)CC3)cc2)N=C(CCc2ccccc2)c2ccccc21`, the Activity in the series on Rattus norvegicus is recorded as 89%. In series [4], this compound had a half-life of 2.7 h.
